Reference: patent publication US20250042875A1, “PESTICIDALLY ACTIVE PYRIDAZINONE COMPOUNDS” (SYNGENTA CROP PROTECTION AG, priority 2021, published 2025)

Assays:
Format in all cases: in vivo
Chilo suppressalis = test: Activity against Chilo suppressalis (striped rice stemborer), artificial diet, L2 larvae; conditions: 144 h, application rate 200 ppm, 6 days after infestation, read-out: control in at least one of the three categories (mortality, anti-feedant effect, or growth inhibition)
Method in brief: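 Artificial diet was treated with aqueous test solutions made from 10′000 ppm DMSO stocks, dried, then infested with 6-8 L2 larvae per well. Mortality, anti-feeding effect and growth inhibition were scored versus untreated samples 6 days after infestation; control means any category exceeds untreated.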

Diabrotica balteata = test: Activity against Diabrotica balteata (corn root worm), maize sprouts, L2 larvae; conditions: 96 h, application rate 200 ppm, 4 days after infestation, read-out: control in at least one of the two categories (mortality or growth inhibition)
Method: Example B2: Activity Against Diabrotica Balteata (Corn Root Worm)
Maize sprouts placed onto an agar layer in 24-well microtiter plates were treated with aqueous test solutions prepared from 10′000 ppm DMSO stock solutions by spraying. After drying, the plates were infested with L2 larvae (6 to 10 per well). The samples were assessed for mortality and growth inhibition in comparison to untreated samples 4 days after infestation.

Euschistus heros = test: Activity against Euschistus heros (neotropical brown stink bug), soybean leaves, N2 nymphs; conditions: 120 h, application rate 200 ppm, 5 days after infestation, read-out: effect in at least one of the two categories (mortality or growth inhibition)
Method: Example B3: Activity Against Euschistus heros (Neotropical Brown Stink Bug)
Soybean leaves on agar in 24-well microtiter plates were sprayed with aqueous test solutions prepared from 10′000 ppm DMSO stock solutions. After drying the leaves were infested with N2 nymphs. The samples were assessed for mortality and growth inhibition in comparison to untreated samples 5 days after infestation.

[1] = tested on: Frankliniella occidentalis; test: Activity against Frankliniella occidentalis (western flower thrips), feeding/contact activity; conditions: 168 h, application rate 200 ppm, 7 days after infestation
Method: Example B4: Activity Against Frankliniella occidentalis (Western Flower Thrips). Feeding/Contact Activity
Sunflower leaf discs were placed on agar in 24-well microtiter plates and sprayed with aqueous test solutions prepared from […] stock solutions. After drying the leaf discs were infested with a Frankliniella population of mixed ages. The samples were assessed for mortality 7 days after infestation.

Myzus persicae [2] = test: Activity against Myzus persicae (green peach aphid), feeding/contact activity; conditions: 144 h, application rate 200 ppm, 6 days after infestation
Method: Example B5: Activity Against Myzus persicae (Green Peach Aphid). Feeding/Contact Activity
Sunflower leaf discs were placed onto agar in a 24-well microtiter plate and sprayed with aqueous test solutions prepared from 10′000 ppm DMSO stock solutions. After drying, the leaf discs were infested with an aphid population of mixed ages. The samples were assessed for mortality 6 days after infestation.

Plutella xylostella = test: Activity against Plutella xylostella (diamond back moth), artificial diet, eggs; conditions: 192 h, application rate 200 ppm, 8 days after infestation, read-out: control in at least one of the two categories (mortality or growth inhibition)
Method in brief: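 Artificial diet was treated with aqueous dilutions of 10′000 ppm DMSO stocks, dried, then infested with Plutella eggs. Mortality and growth inhibition versus untreated samples were scored 8 days after infestation.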

Spodoptera littoralis = test: Activity against Spodoptera littoralis (Egyptian cotton leaf worm), cotton leaf discs, L1 larvae; conditions: foliar, 72 h, application rate 200 ppm, 3 days after infestation, read-out: control in at least one of the three categories (mortality, anti-feedant effect, or growth inhibition)
Method in brief: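 Cotton leaf discs on agar sprayed with aqueous test solutions made from 10′000 ppm DMSO stocks, then infested with five L1 larvae once dry. Mortality, anti-feeding and growth inhibition scored versus untreated samples 3 days after infestation; control counted when any category exceeds untreated.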

Myzus persicae [3] = test: Activity against Myzus persicae (green peach aphid), intrinsic activity; conditions: 120 h, test rate 12 ppm, 5 days after infestation
Method in brief: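 Compounds diluted from 10′000 ppm DMSO stocks were mixed with sucrose solution under a stretched Parafilm membrane. Aphid-infested pea seedlings were set on the membrane and the plate was inverted so the aphids fed through it. Mortality was scored 5 days after infestation.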

Myzus persicae [4] = test: Activity against Myzus persicae (green peach aphid), systemic activity; conditions: 144 h, test rate 24 ppm, 6 days after placing seedlings into test solutions
Method: Example B9: Activity Against Myzus persicae (Green Peach Aphid). Systemic Activity
Roots of pea seedlings infested with an aphid population of mixed ages were placed directly into aqueous test solutions prepared from 10′000 DMSO stock solutions. The samples were assessed for mortality 6 days after placing seedlings into test solutions.

Tetranychus urticae = test: Activity against Tetranychus urticae (two-spotted spider mite), feeding/contact activity; conditions: 192 h
Method: Example B10: Activity Against Tetranychus urticae (Two-Spotted Spider Mite). Feeding/Contact Activity
Bean leaf discs on agar in 24-well microtiter plates were sprayed with aqueous test solutions prepared from 10′000 ppm DMSO stock solutions. After drying the leaf discs were infested with a mite population of mixed ages. The samples were assessed for mortality on mixed population (mobile stages) 8 days after infestation.

C[C@H](NC(=O)c1cc(C(F)(F)F)cc(C(F)(F)F)c1)c1ncnn1C1=NN(C)C(=O)CC1 [P2, N-[(1S)-1-[2-(1-methyl-6-oxo-4,5-dihydropyridazin-3-yl)-1,2,4-triazol-3-yl]ethyl]-3,5-bis(trifluoromethyl)benzamide]
≥ 80%: percent control (mortality, anti-feedant effect or growth inhibition) at 200 ppm (Chilo suppressalis) | percent control (mortality or growth inhibition) at 200 ppm (Diabrotica balteata) | percent effect (mortality or growth inhibition) at 200 ppm (Euschistus heros) | mortality at 200 ppm [1] | mortality at 200 ppm (Myzus persicae [2]) | percent control (mortality or growth inhibition) at 200 ppm (Plutella xylostella) | percent control (mortality, anti-feedant effect or growth inhibition) at 200 ppm (Spodoptera littoralis)

C[C@@H](c1ncnn1-c1ccc(=O)n(C)n1)N(C)C(=O)c1cc(C(F)(F)F)cc(C(F)(F)F)c1 [P5, N-methyl-N-[(1S)-1-[2-(1-methyl-6-oxo-pyridazin-3-yl)-1,2,4-triazol-3-yl]ethyl]-3,5-bis(trifluoromethyl)benzamide]
≥ 80%: percent control (mortality, anti-feedant effect or growth inhibition) at 200 ppm (Chilo suppressalis) | percent control (mortality or growth inhibition) at 200 ppm (Diabrotica balteata) | percent effect (mortality or growth inhibition) at 200 ppm (Euschistus heros) | mortality at 200 ppm (Myzus persicae [2]) | mortality at 12 ppm (Myzus persicae [3]) | percent control (mortality or growth inhibition) at 200 ppm (Plutella xylostella) | percent control (mortality, anti-feedant effect or growth inhibition) at 200 ppm (Spodoptera littoralis) | mortality at 24 ppm (Myzus persicae [4])

CC(c1nccnc1-c1ccc(=O)n(C)n1)N(C)C(=O)c1cc(C(F)(F)F)cc(C(F)(F)F)c1 (stereo not drawn) [P6, N-methyl-N-[1-[3-(1-methyl-6-oxo-pyridazin-3-yl)pyrazin-2-yl]ethyl]-3,5-bis(trifluoromethyl)benzamide]
≥ 80%: percent control (mortality, anti-feedant effect or growth inhibition) at 200 ppm (Chilo suppressalis) | percent control (mortality or growth inhibition) at 200 ppm (Diabrotica balteata) | mortality at 200 ppm (Myzus persicae [2]) | mortality at 12 ppm (Myzus persicae [3]) | percent control (mortality or growth inhibition) at 200 ppm (Plutella xylostella) | percent control (mortality, anti-feedant effect or growth inhibition) at 200 ppm (Spodoptera littoralis) | mortality at 24 ppm (Myzus persicae [4])

C[C@H](NC(=O)c1cc(Cl)cc(S(C)(=O)=O)c1)c1ncnn1-c1ccc(=O)n(C)n1 [P9, 3-chloro-N-[(1S)-1-[2-(1-methyl-6-oxo-pyridazin-3-yl)-1,2,4-triazol-3-yl]ethyl]-5-methylsulfonyl-benzamide]
≥ 80%: percent effect (mortality or growth inhibition) at 200 ppm (Euschistus heros) | mortality at 200 ppm [1] | mortality at 200 ppm (Myzus persicae [2]) | mortality at 12 ppm (Myzus persicae [3])

C[C@@H](c1ncnn1-c1ccc(=O)n(C)n1)N(C)C(=O)c1cc(Cl)cc(S(=O)(=O)C(F)(F)F)c1 [P18, 3-chloro-N-methyl-N-[(1S)-1-[2-(1-methyl-6-oxo-pyridazin-3-yl)-1,2,4-triazol-3-yl]ethyl]-5-(trifluoromethylsulfonyl) benzamide]
≥ 80%: percent control (mortality, anti-feedant effect or growth inhibition) at 200 ppm (Chilo suppressalis) | percent control (mortality or growth inhibition) at 200 ppm (Diabrotica balteata) | percent effect (mortality or growth inhibition) at 200 ppm (Euschistus heros) | mortality at 200 ppm (Myzus persicae [2]) | mortality at 12 ppm (Myzus persicae [3]) | percent control (mortality or growth inhibition) at 200 ppm (Plutella xylostella) | percent control (mortality, anti-feedant effect or growth inhibition) at 200 ppm (Spodoptera littoralis) | mortality at 24 ppm (Myzus persicae [4])

C[C@H](NC(=O)c1cc(Cl)cc(C(F)(F)F)c1)c1ncnn1C1=NN(C)C(=O)CC1 [P19, 3-chloro-N-[(1S)-1-[2-(1-methyl-6-oxo-4,5-dihydropyridazin-3-yl)-1,2,4-triazol-3-yl]ethyl]-5-(trifluoromethyl)benzamide]
≥ 80%: percent control (mortality, anti-feedant effect or growth inhibition) at 200 ppm (Chilo suppressalis) | percent control (mortality or growth inhibition) at 200 ppm (Diabrotica balteata) | percent effect (mortality or growth inhibition) at 200 ppm (Euschistus heros) | mortality at 200 ppm [1] | mortality at 12 ppm (Myzus persicae [3]) | percent control (mortality or growth inhibition) at 200 ppm (Plutella xylostella) | percent control (mortality, anti-feedant effect or growth inhibition) at 200 ppm (Spodoptera littoralis) | mortality at 200 ppm (Tetranychus urticae)
